Data as given in patent US20200016159A1, “N3-CYCLICALLY SUBSTITUTED THIENOURACILS AND USE THEREOF” (Bayer Aktiengesellschaft, priority 2016, published 2020).

Molecular target: T1, human adenosine A2b receptor (Homo sapiens, UniProt P29275)
T1 sequence (P29275 1-332): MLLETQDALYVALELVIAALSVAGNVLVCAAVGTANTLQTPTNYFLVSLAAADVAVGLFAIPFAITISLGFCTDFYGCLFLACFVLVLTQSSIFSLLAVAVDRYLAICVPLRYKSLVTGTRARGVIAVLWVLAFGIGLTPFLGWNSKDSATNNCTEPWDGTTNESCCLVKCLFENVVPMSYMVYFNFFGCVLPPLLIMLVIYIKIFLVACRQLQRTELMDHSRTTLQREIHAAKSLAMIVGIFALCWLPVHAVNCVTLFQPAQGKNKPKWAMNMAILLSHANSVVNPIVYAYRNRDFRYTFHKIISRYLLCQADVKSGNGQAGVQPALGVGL
Assay: Cellular in vitro reporter gene test for A2b receptor activity (antagonism of NECA)
Format: cell-based
Design: expressed in transfected cells; host or cells: CHO-K1 (Chinese hamster ovary) with CRE-luciferase reporter
Settings: recombinant CHO-K1 cells, CRE-luciferase reporter, co-incubation with EC50 concentration of NECA, 3 hours
Protocol: The identification of selective antagonists of the human adenosine A2b receptor and the quantification of the efficacy and selectivity of the compounds according to the invention was carried out with the aid of recombinant cell lines for the human adenosine receptors A1, A2a, A2b and A3. These cell lines were originally derived from an ovarepithelial cell of the hamster (Chinese Hamster Ovary, CHO-K1, American Type Culture Collection, Manassas, Va. 20108, USA). In addition to the respective recombinantly expressed adenosine receptor for testing the efficacy at the A1, A2a and A2b receptors, the cell lines contain a reporter gene construct where expression of the firefly (Photinus pyralis) luciferase is under the control of a promoter which can be activated via intracellular signal cascades by stimulation of the receptors with the (not subtype-selective) adenosine receptor agonist NECA (5′-N-ethylcarboxamidoadenosine) [S. J. Hill, J. G. Baker, S. Rhees, Curr. Opin. Pharmacol. 1, 526-532 (2001)].
In the case of the A2a and A2b cell lines, this is a minimal promoter having a plurality of cAMP-responsive elements (CRE). Stimulation of the Gs-coupled A2b or A2a receptors by NECA ultimately leads, via formation of cAMP, to CRE-dependent induction of luciferase expression, which is detected 3 hours after the start of the incubation with NECA using a detection solution in a suitable luminometer. For testing the antagonists, initially, in a pre-experiment, the concentration of NECA which, at the test day in question, results in half-maximum stimulation of luciferase expression (EC50 concentration) is determined. By joint incubation of this EC50 concentration of NECA with the substances to be tested, it is possible to determine their antagonistic activity.
Table 1 below lists the IC50 values from the A2b receptor assay for individual working examples (in some cases as means of a plurality of independent individual determinations and rounded to two significant figures; it may also be the case here that various independent preparations of the respective working example have been used): […]

SMILES | IC50 [µM]
Cc1c(CN2CCNC2=NC#N)sc2c1c(=O)n(C1CC1C)c(=O)n2CCOC(F)(F)F (racemic) [Example 264, [1-({5-Methyl-3-(2-methylcyclopropyl)-2,4-dioxo-1-[2-(trifluoromethoxy)ethyl]-1,2,3,4-tetrahydrothieno[2,3-d]pyrimidin-6-yl}methyl)imidazolidin-2-ylidene]cyanamide] | 0.016
COC(=O)N=C1NCCN1Cc1sc2c(c1C)c(=O)n(C1CC1C)c(=O)n2CCOC(F)(F)F (racemic) [Example 267, Methyl [1-({5-methyl-3-(2-methylcyclopropyl)-2,4-dioxo-1-[2-(trifluoromethoxy)ethyl]-1,2,3,4-tetrahydrothieno[2,3-d]pyrimidin-6-yl}methyl)imidazolidin-2-ylidene]carbamate] | 0.0024
Cc1c(Cn2cc[nH]c2=O)sc2c1c(=O)n(C1CC1C)c(=O)n2CCOC(F)(F)F (racemic) [Example 270, 5-Methyl-3-(2-methylcyclopropyl)-6-[(2-oxo-2,3-dihydro-1H-imidazol-1-yl)methyl]-1-[2-(trifluoromethoxy)ethyl]thieno[2,3-d]pyrimidine-2,4(1H,3H)-dione] | 0.0015
Cc1c(Cn2[nH]ccc2=O)sc2c1c(=O)n(C1CC1C)c(=O)n2CCOC(F)(F)F (racemic) [Example 273, 5-Methyl-3-(2-methylcyclopropyl)-6-[(5-oxo-2,5-dihydro-1H-pyrazol-1-yl)methyl]-1-[2-(trifluoromethoxy)ethyl]thieno[2,3-d]pyrimidine-2,4(1H,3H)-dione] | 0.067
Cc1c(Cn2nc[nH]c2=O)sc2c1c(=O)n(C1CC1C)c(=O)n2CCOC(F)(F)F (racemic) [Example 276, 5-Methyl-3-(2-methylcyclopropyl)-6-[(5-oxo-4,5-dihydro-1H-1,2,4-triazol-1-yl)methyl]-1-[2-(trifluoromethoxy)ethyl]thieno[2,3-d]pyrimidine-2,4(1H,3H)-dione] | 0.002
COCCn1c(=O)n(C2CC2C(F)(F)F)c(=O)c2c(C)c(CN3CCNC3=O)sc21 (racemic) [Example 294, 1-(2-Methoxyethyl)-5-methyl-6-[(2-oxoimidazolidin-1-yl)methyl]-3-[2-(trifluoromethyl)cyclopropyl]thieno[2,3-d]pyrimidine-2,4(1H,3H)-dione] | 0.02
COCCn1c(=O)n(C2CC2C(F)(F)F)c(=O)c2c(C)c(Cn3nc[nH]c3=O)sc21 (racemic) [Example 297, 1-(2-Methoxyethyl)-5-methyl-6-[(5-oxo-4,5-dihydro-1H-1,2,4-triazol-1-yl)methyl]-3-[2-(trifluoromethyl)cyclopropyl]thieno[2,3-d]pyrimidine-2,4(1H,3H)-dione] | 0.12
CCC1CC1n1c(=O)c2c(C)c(CN3CCNC3=O)sc2n(CCOC)c1=O (racemic) [Example 300, 3-(2-Ethylcyclopropyl)-1-(2-methoxyethyl)-5-methyl-6-[(2-oxoimidazolidin-1-yl)methyl]thieno[2,3-d]pyrimidine-2,4(1H,3H)-dione] | 0.013
CCC1CC1n1c(=O)c2c(C)c(Cn3nc[nH]c3=O)sc2n(CCOC)c1=O (racemic) [Example 303] | 0.071
COCCn1c(=O)n(C2CC2OC)c(=O)c2c(C)c(CN3CCNC3=O)sc21 (racemic) [Example 306, 3-(2-Methoxycyclopropyl)-1-(2-methoxyethyl)-5-methyl-6-[(2-oxoimidazolidin-1-yl)methyl]thieno[2,3-d]pyrimidine-2,4(1H,3H)-dione] | 0.016
COCCn1c(=O)n(C2CC2OC)c(=O)c2c(C)c(Cn3nc[nH]c3=O)sc21 (racemic) [Example 309, 3-(2-Methoxycyclopropyl)-1-(2-methoxyethyl)-5-methyl-6-[(5-oxo-4,5-dihydro-1H-1,2,4-triazol-1-yl)methyl]thieno[2,3-d]pyrimidine-2,4(1H,3H)-dione] | 0.11
COC(=O)N=C1NCCN1Cc1sc2c(c1C)c(=O)n(C1CC1)c(=O)n2CC1CCCO1 (single isomer, unassigned) [Example 43, Methyl [1-{[3-cyclopropyl-5-methyl-2,4-dioxo-1-(tetrahydrofuran-2-ylmethyl)-1,2,3,4-tetrahydrothieno[2,3-d]pyrimidin-6-yl]methyl}imidazolidin-2-ylidene]carbamate] | 0.012
COC(=O)N=C1NCCN1Cc1sc2c(c1C)c(=O)n(C1CC1)c(=O)n2CC1CCCO1 (single isomer, unassigned) [Example 44, Methyl [1-{[3-cyclopropyl-5-methyl-2,4-dioxo-1-(tetrahydrofuran-2-ylmethyl)-1,2,3,4-tetrahydrothieno[2,3-d]pyrimidin-6-yl]methyl}imidazolidin-2-ylidene]carbamate] | 0.016
Cc1c(Cn2cc[nH]c2=O)sc2c1c(=O)n(C1CC1)c(=O)n2CC1CCCO1 (single isomer, unassigned) [Example 47, 3-Cyclopropyl-5-methyl-6-[(2-oxo-2,3-dihydro-H-imidazol-1-yl)methyl]-1-(tetrahydrofuran-2-ylmethyl)thieno[2,3-d]pyrimidine-2,4(1H,3H)-dione] | 0.14

Continued, values first:

IC50 [µM] | SMILES
0.0023 | Cc1c(CN2CCNC2=O)sc2c1c(=O)n(C1CC1C)c(=O)n2CCF (racemic) [Example 231, 1-(2-Fluoroethyl)-5-methyl-3-(2-methylcyclopropyl)-6-[(2-oxoimidazolidin-1-yl)methyl]thieno[2,3-d]pyrimidine-2,4(1H,3H)-dione]
0.0019 | Cc1c(CN2CCNC2=O)sc2c1c(=O)n(C1CC1C)c(=O)n2CC(F)F (racemic) [Example 234, 1-(2,2-Difluoroethyl)-5-methyl-3-(2-methylcyclopropyl)-6-[(2-oxoimidazolidin-1-yl)methyl]thieno[2,3-d]pyrimidine-2,4(1H,3H)-dione]
0.0044 | Cc1c(CN2CCNC2=O)sc2c1c(=O)n(C1CC1C)c(=O)n2CC(F)(F)F (racemic) [Example 237, 5-Methyl-3-(2-methylcyclopropyl)-6-[(2-oxoimidazolidin-1-yl)methyl]-1-(2,2,2-trifluoroethyl)thieno[2,3-d]pyrimidine-2,4(1H,3H)-dione]
0.0021 | Cc1c(CN2CCNC2=O)sc2c1c(=O)n(C1CC1C)c(=O)n2CCCC(F)(F)F (racemic) [Example 242, 5-Methyl-3-(2-methylcyclopropyl)-6-[(2-oxoimidazolidin-1-yl)methyl]-1-(4,4,4-trifluorobutyl)thieno[2,3-d]pyrimidine-2,4(1H,3H)-dione]
0.0067 | Cc1c(CN2CCNC2=O)sc2c1c(=O)n(C1CC1C)c(=O)n2CCC(F)(F)C(F)F (racemic) [Example 245, 5-Methyl-3-(2-methylcyclopropyl)-6-[(2-oxoimidazolidin-1-yl)methyl]-1-(3,3,4,4-tetrafluorobutyl)thieno[2,3-d]pyrimidine-2,4(1H,3H)-dione]
0.0014 | Cc1c(CN2CCNC2=O)sc2c1c(=O)n(C1CC1C)c(=O)n2CC1CC(F)(F)C1 (racemic) [Example 252, 1-[(3,3-Difluorocyclobutyl)methyl]-5-methyl-3-(2-methylcyclopropyl)-6-[(2-oxoimidazolidin-1-yl)methyl]thieno[2,3-d]pyrimidine-2,4(1H,3H)-dione]
0.0064 | COCCn1c(=O)n(C2CC2C)c(=O)c2c(C)c(CN3CCNC3=O)sc21 (racemic) [Example 258, 1-(2-Methoxyethyl)-5-methyl-3-(2-methylcyclopropyl)-6-[(2-oxoimidazolidin-1-yl)methyl]thieno[2,3-d]pyrimidine-2,4(1H,3H)-dione]
0.015 | Cc1c(CN2CCNC2=O)sc2c1c(=O)n(C1CC1C)c(=O)n2CCOC(F)(F)F (racemic) [Example 261, 5-Methyl-3-(2-methylcyclopropyl)-6-[(2-oxoimidazolidin-1-yl)methyl]-1-[2-(trifluoromethoxy)ethyl]thieno[2,3-d]pyrimidine-2,4(1H,3H)-dione]
0.0016 | Cc1c(CN2CCNC2=O)sc2c1c(=O)n(C1CC1C)c(=O)n2CCSC(F)(F)F (racemic) [Example 279, 5-Methyl-3-(2-methylcyclopropyl)-6-[(2-oxoimidazolidin-1-yl)methyl]-1-{2-[(trifluoromethyl)sulfanyl]ethyl}thieno[2,3-d]pyrimidine-2,4(1H,3H)-dione]
